From patent publication US9145372B2, “Pyridazine derivatives, compositions and methods for treating cognitive impairment” (AGENEBIO, INC., priority 2010, dated 2015)

Key:
[1] = molecular target: T1, GABAA α5β3γ2 subtype receptor (Homo sapiens, UniProt P18507+P31644); assay: GABA-gated Cl- current potentiation in Xenopus oocytes expressing GABAA α5β3γ2 (TEVC); assay type: cell-based
T1 construct: myc-His (vector-encoded); expressed in transfected cells; host or cells: Xenopus laevis oocytes injected with cDNAs
T1 sequence (P31644 32-462): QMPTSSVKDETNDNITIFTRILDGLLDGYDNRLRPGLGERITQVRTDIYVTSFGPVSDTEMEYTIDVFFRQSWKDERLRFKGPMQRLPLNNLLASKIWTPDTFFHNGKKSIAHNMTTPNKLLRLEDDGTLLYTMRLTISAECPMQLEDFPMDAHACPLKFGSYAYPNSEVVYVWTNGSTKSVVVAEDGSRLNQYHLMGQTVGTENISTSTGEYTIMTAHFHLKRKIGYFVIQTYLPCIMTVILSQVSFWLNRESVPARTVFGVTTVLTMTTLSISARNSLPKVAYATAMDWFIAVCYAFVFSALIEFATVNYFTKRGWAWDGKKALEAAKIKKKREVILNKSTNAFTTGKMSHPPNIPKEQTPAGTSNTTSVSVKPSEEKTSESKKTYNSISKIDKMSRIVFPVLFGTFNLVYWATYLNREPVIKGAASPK
T1 sequence (P28472 26-473 partner): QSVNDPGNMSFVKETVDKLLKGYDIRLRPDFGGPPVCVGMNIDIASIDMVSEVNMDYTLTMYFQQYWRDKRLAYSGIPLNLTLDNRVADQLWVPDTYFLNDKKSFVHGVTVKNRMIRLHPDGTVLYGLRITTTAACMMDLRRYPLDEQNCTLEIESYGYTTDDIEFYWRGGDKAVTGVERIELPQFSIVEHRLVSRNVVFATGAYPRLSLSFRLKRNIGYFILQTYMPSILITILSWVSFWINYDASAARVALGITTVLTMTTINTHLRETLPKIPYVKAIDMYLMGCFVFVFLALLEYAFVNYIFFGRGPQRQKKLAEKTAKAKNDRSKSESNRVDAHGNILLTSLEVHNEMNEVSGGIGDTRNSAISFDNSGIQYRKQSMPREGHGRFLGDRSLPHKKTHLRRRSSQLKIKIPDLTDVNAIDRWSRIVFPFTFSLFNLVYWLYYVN
T1 sequence (P18507 40-467 limits assumed): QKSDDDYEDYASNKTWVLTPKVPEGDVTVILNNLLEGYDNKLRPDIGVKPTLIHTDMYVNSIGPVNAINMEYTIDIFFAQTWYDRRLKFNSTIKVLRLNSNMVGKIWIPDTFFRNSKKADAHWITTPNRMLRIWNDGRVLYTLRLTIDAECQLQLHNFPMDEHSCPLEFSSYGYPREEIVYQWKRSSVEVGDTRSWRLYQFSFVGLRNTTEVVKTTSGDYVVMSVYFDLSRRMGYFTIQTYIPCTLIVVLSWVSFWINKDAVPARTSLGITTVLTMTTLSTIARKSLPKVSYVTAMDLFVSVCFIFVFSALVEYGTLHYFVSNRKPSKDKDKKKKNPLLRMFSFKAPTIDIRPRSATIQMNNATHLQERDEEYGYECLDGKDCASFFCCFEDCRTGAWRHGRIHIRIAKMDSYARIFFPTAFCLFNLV
Source text: (§1) Step 1: Establish Clones of GABAAR Subunits (α5, β3, γ2, α1, α2 and α3) and Prepare the Corresponding cRNAs: Human clones of GABAA-R α5, β3, γ2, α1, α2 and α3 subunits are obtained from commercial resources (e.g., OriGene, http://www.origene.com and Genescript, http://www.genescript.com). These clones are engineered into pRC, pCDM, pcDNA, and pBluescript KSM vector (for oocyte expression) or other equivalent expression vectors. Conventional transfection agents (e.g., FuGene, Lipofectamine 2000, or others) are used to transiently transfect host cells.
Adult female Xenopus laevis frogs were purchased from Nasco (Fort Atkinson, Wis.). […] All chemicals used were of reagent grade. […] Stock solutions of Diazepam, Flumazenil and compounds of the present invention were prepared in dimethyl sulfoxide (DMSO) and then diluted to an appropriate concentration with the extracellular solution just before use. To avoid adverse effects from DMSO exposure, the final concentration of DMSO was not higher than 0.3% (v/v).
Upon conclusion of compound testing and successful washout, a 1.0 μM Diazepam was tested and used for comparative activity on the two GABAAR subtypes.
Other concentrations of the test compound may also be tested following the same protocol.
Results are expressed as mean±SEM.

[2] = molecular target: T2, GABAA α1 receptors (α1β2γ2) (Homo sapiens, UniProt P14867+P18507); assay: GABA-gated Cl- current in Xenopus oocytes expressing GABAA α1β2γ2 (TEVC), off-target activity; assay type: cell-based; details: concentration response 0.01-100 μM; FIGS. 1(A)-(D)
T2 construct: expressed in transfected cells; host or cells: Xenopus laevis oocytes injected with cDNAs
T2 sequence (P14867 28-456): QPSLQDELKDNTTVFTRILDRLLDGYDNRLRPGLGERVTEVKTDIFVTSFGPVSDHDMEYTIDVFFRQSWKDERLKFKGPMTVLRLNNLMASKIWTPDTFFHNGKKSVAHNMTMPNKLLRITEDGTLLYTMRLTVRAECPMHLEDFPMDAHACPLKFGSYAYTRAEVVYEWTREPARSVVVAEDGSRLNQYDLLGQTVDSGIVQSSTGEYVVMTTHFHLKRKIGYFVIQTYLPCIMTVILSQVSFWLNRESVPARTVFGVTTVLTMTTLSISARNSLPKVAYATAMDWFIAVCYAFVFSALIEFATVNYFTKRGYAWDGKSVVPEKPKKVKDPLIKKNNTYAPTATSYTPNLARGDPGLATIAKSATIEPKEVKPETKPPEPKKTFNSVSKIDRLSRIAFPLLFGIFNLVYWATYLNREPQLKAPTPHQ
T2 sequence (P47870 25-512 partner limits assumed): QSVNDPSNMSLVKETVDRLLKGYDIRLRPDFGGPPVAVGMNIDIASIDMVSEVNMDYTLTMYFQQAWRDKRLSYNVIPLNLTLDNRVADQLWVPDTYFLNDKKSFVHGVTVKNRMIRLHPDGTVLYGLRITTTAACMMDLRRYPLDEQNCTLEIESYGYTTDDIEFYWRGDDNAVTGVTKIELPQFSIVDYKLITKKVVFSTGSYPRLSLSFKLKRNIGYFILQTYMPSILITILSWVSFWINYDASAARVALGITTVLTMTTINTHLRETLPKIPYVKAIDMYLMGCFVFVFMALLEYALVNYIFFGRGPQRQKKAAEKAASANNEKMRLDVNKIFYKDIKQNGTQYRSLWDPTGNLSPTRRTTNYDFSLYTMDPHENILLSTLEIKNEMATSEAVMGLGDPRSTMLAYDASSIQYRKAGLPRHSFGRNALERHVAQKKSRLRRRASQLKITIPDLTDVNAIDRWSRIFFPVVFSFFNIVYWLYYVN
T2 sequence (P18507 40-467 limits assumed): T1 sequence (P18507 40-467 limits assumed)
Source text: as §1
Xenopus oocytes were isolated according to previously published procedures (see, e.g., Goldin et al. Methods Enzymol. 207:266-279 (1992)). The isolated Xenopus oocytes were injected with GABAAR cDNAs (1:1:1 ratio for a total volume of 1 ng of α1βγ2 or α5β3γ2) cloned into mammalian expression vectors. In particular, α1, β2, γ2 were cloned into pcDNA3.1. and α5 and β3 were cloned into pcDNA3.1 myc-His. Vectors were verified by partial sequencing (DNA Core Facility, University of Southern California, USA). After injection, oocytes were stored in incubation medium (Modified Barth's Saline (MBS) supplemented with 2 mM sodium pyruvate, 0.5 mM theophylline and 50 mg/L gentamycin), in petri dishes (VWR, San Dimas, Calif.). All solutions were sterilized by passage through 0.22 μM filters. […] Oocytes were used in experiments for up to 5 days after injection.
A high-throughput two-electrode voltage clamp (TEVC) system (OpusXpress A6000; Molecular Devices, Union City, Calif.), which automates the impalement of oocytes, fluid delivery and current recording from 8 oocytes in parallel, was used to carry out all electrophysiological recordings.
Xenopus Oocytes expressing GABAA-R α5β3γ2 or α1β2γ2 subtype, as prepared in section (A) above, were placed in 8 chambers of OpusXpress and perfused by MBS at 3 mL/min. Glass electrodes back-filled with 3 M KCl (0.5-3 megaohms) were used. Membrane potential of oocytes was voltage-clamped at −60 mV. Oocytes with holding current larger than 0.5 μA were discarded.
Data for each experimental point were obtained from 4 or more Xenopus oocytes and from at least two different frogs. The n refers to the number of Xenopus oocytes tested. Results are expressed as mean±SEM. […] Prism (GraphPAD Software, San Diego, Calif.) and Excel were used to perform curve fitting and statistical analyses.

Compound: CN(C)C(=O)c1c(-c2ccccc2)cnnc1-c1ccccc1 [Compound 4]
- positive allosteric modulation of GABA at GABAA α5 receptors ([1]; concentration response 0.01-100 μM, FIGS. 1(A)-(D)): strong positive allosteric modulation
- activation at 1 µM ([1]; read-out: GABA α5 EC50 % potentiation): 42%
- positive allosteric modulation at GABAA α1 receptors [2]: markedly reduced positive allosteric modulation
